Experiments:
Type in all cases: in vivo
kochia (Kochia scoparia) = experiment: Test D postemergence plant response
Description: (§1) At the same time, plants selected from these crop and weed species and also kochia (Kochia scoparia), wild oat (Avena fatua), and chickweed (common chickweed, Stellaria media) were planted in pots containing Redi-Earth® planting medium (Scotts Company, 14111 Scottslawn Road, Marysville, Ohio 43041) comprising spaghnum peat moss, vermiculite, wetting agent and starter nutrients and treated with postemergence applications of test chemicals formulated in the same manner. Plants ranged in height from 2 to 18 cm (1- to 4-leaf stage) for postemergence treatments. Treated plants and controls were maintained in a greenhouse for 13 to 15 days, after which time all species were compared to controls and visually evaluated. Plant response ratings, summarized in Table D, are based on a scale of 0 to 100 where 0 is no effect and 100 is complete control. A dash (-) response means no test result.

[1] = test system: chickweed (common chickweed, Stellaria media); experiment: Test D postemergence plant response
Description: as §1

wild oat (Avena fatua) = experiment: Test D postemergence plant response; details: for Plant response rating, Oat, Wild: 125 g ai/ha
Description: as §1

[2] = test system: galium (catchweed bedstraw, Galium aparine); experiment: Test B postemergence plant response
Outline: (§2)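 Injury was assessed visually about 10 days after treatment, scored from 0 (no effect) to 100 (complete control) by comparison with untreated controls. Test chemicals had been applied postemergence to potted plants at the one- to two-leaf stage, grown in loam soil and sand in a greenhouse.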

[3] = test system: blackgrass (Alopecurus myosuroides); experiment: Test B postemergence plant response
Outline: as §2

[4] = 31 g ai/ha, scale 0 to 100 (0 no effect, 100 complete control)
[5] = 62 g ai/ha, scale 0 to 100, 0 no effect, 100 complete control
[6] = 125 g ai/ha, scale 0 to 100, 0 no effect, 100 complete control
[7] = scale 0 to 100, 0 no effect, 100 complete control
[8] = Postemergence, 1000 g ai/ha, 0 to 100 scale (0 no effect, 100 complete control)
[9] = 125 g ai/ha, postemergence, 0 to 100 scale, 0 no effect, 100 complete control
[10] = Postemergence, 31 g ai/ha, 0 to 100 scale (0 no effect, 100 complete control)

Row | Structure (SMILES) | Plant response rating (scale 0 to 100), Kochia (kochia (Kochia scoparia); 16 g ai/ha) | Kochia plant response rating (kochia (Kochia scoparia); [4]) | Plant response rating, Kochia (kochia (Kochia scoparia); [5]) | Plant response rating, Kochia (kochia (Kochia scoparia); [6]) | Plant response rating (scale 0 to 100), Chickweed ([1]; 16 g ai/ha) | Chickweed plant response rating [1, 4] | Plant response rating, Chickweed [1, 5] | Plant response rating, Chickweed [1, 6] | Plant response rating (scale 0 to 100), Oat, Wild (wild oat (Avena fatua); 16 g ai/ha) | Oat, Wild plant response rating (wild oat (Avena fatua); [4]) | Oat, Wild plant response rating (wild oat (Avena fatua); [5]) | Plant response rating, Oat, Wild (wild oat (Avena fatua); [7]) | Plant response rating, Galium [2, 9] | Plant response rating, Galium [2, 10] | Plant response rating, Blackgrass [3, 9] | Plant response rating, Blackgrass [3, 10] | further results
1 | Clc1cnc(Oc2ccccc2-c2cc(Cl)sn2)nc1 [Compound 192] | 50 | 80 | 90 | 95 | 0 | 50 | 50 | 55 | 0 | 0 | 0 | 5 |  |  |  |  | Plant response rating, Galium [2, 8]: 100; Plant response rating, Blackgrass [3, 8]: 90
2 | FC(Cl)(Cl)c1cc(-c2ccccc2Oc2ncc(Cl)cn2)no1 [Compound 198] | 60 | 95 | 100 | 100 | 5 | 60 | 60 | 95 | 5 | 5 | 10 | 10 | 100 | 100 | 40 | 10 | 
3 | CC(F)(F)c1cc(-c2ccccc2Oc2ncc(Cl)cn2)no1 [Compound 220] | 100 |  |  |  | 40 |  |  |  | 5 |  |  |  | 100 | 90 | 90 | 60 | Plant response rating (scale 0 to 100), Kochia (kochia (Kochia scoparia); 2 g ai/ha): 20; Plant response rating (scale 0 to 100), Kochia (kochia (Kochia scoparia); 4 g ai/ha): 50; Plant response rating (scale 0 to 100), Kochia (kochia (Kochia scoparia); 8 g ai/ha): 100; Plant response rating (scale 0 to 100), Chickweed ([1]; 2 g ai/ha): 5; Plant response rating (scale 0 to 100), Chickweed ([1]; 4 g ai/ha): 10; Plant response rating (scale 0 to 100), Chickweed ([1]; 8 g ai/ha): 40; Plant response rating (scale 0 to 100), Oat, Wild (wild oat (Avena fatua); 2 g ai/ha): 0; Plant response rating (scale 0 to 100), Oat, Wild (wild oat (Avena fatua); 4 g ai/ha): 0; Plant response rating (scale 0 to 100), Oat, Wild (wild oat (Avena fatua); 8 g ai/ha): 0
4 | FCc1cc(-c2ccccc2Oc2ncc(Cl)cn2)on1 [Compound 224] | 35 | 70 | 95 | 100 | 10 | 15 | 40 | 80 | 0 | 0 | 0 | 0 | 100 | 80 | 70 | 40 | 
5 | Fc1cccc(Oc2ncc(Cl)cn2)c1-c1cc(C(F)(F)F)no1 [Compound 228] | 100 | 100 | 100 | 100 | 85 | 85 | 98 | 100 | 10 | 20 | 40 | 55 | 100 | 100 | 100 | 60 | 
6 | Cc1cc(-c2c(F)cccc2Oc2ncc(Cl)cn2)on1 [Compound 229] | 85 | 90 | 98 | 98 | 60 | 60 | 80 | 85 | 0 | 10 | 10 | 10 | 100 | 80 | 80 | 30 | 
7 | Cc1cc(-c2c(F)cccc2Oc2ncc(Br)cn2)on1 [Compound 230] | 65 | 85 |  | 100 | 65 | 65 |  | 80 | 0 | 0 | 5 | 10 | 100 | 80 | 70 | 20 | Kochia plant response rating (kochia (Kochia scoparia); [5]): 100; Chickweed plant response rating [1, 5]: 75

Source: patent US10131652B2, “Pyrimidinyloxy benzene derivatives as herbicides” (E. I. DU PONT DE NEMOURS AND COMPANY, priority 2014, dated 2018)
